Data from patent US7425548B2, “Materials and methods for immune system stimulation” (Variety Chidren's Hospital, priority 2004, dated 2008).

Legend:
[1] = tested on: C3a des Arg (alternative pathway); assay: Complement activation pathway EIA in normal blood; set-up: species or system human; conditions: RR1 0-100 μg/ml, 24 hours
Experimental: Normal blood samples from healthy volunteers were incubated with RR1 (0-100 μg) for 24 hours. Human complement C3a des Arg and C4a des Arg correlate EIA Kits (Assay Design Inc., Ann Arbor, Mich.) were used for quantification of classic and alternative pathway of complement activation using an ELISA procedure. ***p<0.001.
Complement activation pathway. Human complement C3a des Arg and C4a des Arg correlate-EIA Kits (ASSAY DESIGN Inc., Ann Arbor, Mich.) were used to measure the cleaved complement components (C3a des Arg and C4a des Arg) according to the manufacturer's protocols. In brief, 1 ml normal blood, drawn from healthy volunteer was incubated with 0-100 μg/ml of RR1 in a CO2 incubator at 37° C. for 24 hours. The treated blood samples were centrifuged at 2000×g at 4° C. and 225 μl of complement reagent ‘A’ was added to an equal volume of the sample supernatant and vortexed thoroughly. To this mixture, 50 μl of 10 N HCl was added, vortexed again and incubated at room temperature for 1 hour. […] The plate was incubated at 37° C. for 1 hour without shaking, added 50 μl of stop solution and absorbance was taken at 405 nm with a reference wavelength of 570 nm in a BIO-RAD Bench top plate reader.

[2] = tested on: I-κBα in RAW 264.7 macrophages; assay: I-κBα degradation, immunoblot; type: cell-based, mouse; conditions: RR1 100 μg/ml, western blot
Experimental: The cells were treated with RR1 at intervals of 15, 30, and 60 minutes. Degradation of I-κBα levels in cytoplasmic lysates was determined by immunoblot analysis using antimouse I-κBα mAb. I-κBα degradation. The degradation of IκB-α is a prerequisite for the activation of NF-κB. To determine the effect of RR1 on cellular IκB-α levels and its degradation, immunoblot analysis was performed with cytosolic lysates from RR1-treated RAW 264.7 macrophages for different time periods (0, 15 minutes, 30 minutes, 1 hour). The lysates were separated by SDS-PAGE on 12% gels and transferred to nitrocellulose membranes using a TransBlot apparatus (BIO-RAD, Hercules, Calif.). The membranes were hybridized with IκB-α specific monoclonal antibodies (1:1000) by the Western blot hybridization protocol (Lebron, F. et al. J Biol Chem., 2003, 278:25001-25008) using antimouse IκB-α antibody (CELL SIGNALING TECHNOLOGY, Inc, Beverly, Mass.) using the color detection system (BIO-RAD, Hercules, Calif.).

Water solubility = type: physicochemical
Experimental: Isolation and characterization of RR1. […] The final RR1 compound, shown in FIG. 3, was isolated in about 0.1% yield of the total dry material used for extraction as a puffy solid that dissolved in water. […] Therefore, detailed polysaccharide analyses such as the glycosyl composition, linkage, molecular weight and conformation of the glucose units at the anomeric center were performed at the Complex Carbohydrate Research Center, University of Georgia, Athens. […] To perform glycosyl linkage analysis, the sample was permethylated three times by the method of Cikanu and Kereck (Ciucanu, I. and F. Kereck Carbohydr. Res., 1984, 131:209-217), hydrolyzed with 2 M trifluroacetic acid, reduced with NaBD4 and acetylated with acetic anhydride/pyridine and the resulted partially methylated alditol acetates (PMAA) were analyzed by GC/MS. […] The conformations at the anomeric center of the glucopyranosyl units were obtained based on the 500 MHz protonNMR spectra recorded in D2O and by comparison with the anomeric proton signals of standard samples. The molecular mass was obtained from the size exclusion chromatography using SUPELCO silica column (1.0×30 cm), eluting with 50 mM ammonium formate buffer at a rate of […]. and detected by the refractive index. […]

[3] = tested on: TLR2, TLR4 and TLR6 mRNAs in RAW264.7 cells; assay: TLR mRNA levels, RT-PCR; type: cell-based, mouse; conditions: 0-1000 μg/m RR1, 24 hours
Experimental: The cells (1×10^6) were treated with RR1 (0, 10, 100, 500 and 1000 μg/ml) at 37° C. for 24 hours in a CO2 incubator and mRNA amplified with mouse TLR specific primers.
TLR mRNA and protein levels. TLR2, 4 and 6 mRNA levels were analyzed by RT-PCR using total RNAs extracted from RR1 treated cells. Total RNA was extracted from RR1-treated and untreated RAW 264.7 cells and 0.5 μg/ml RNA was reverse transcribed and amplified using mouse TLR2, 4 and 6 specific PCR primers (R&D SYSTEMS, Minneapolis, Minn.). Mouse GAPDH gene was also amplified as a control. The PCR products were separated on agarose gel.

normal lymphocytes [4] = assay: Quantification of cytokine and chemokine synthesis by ELISA; type: cell-based, human; conditions: at 100 pg/ml concentration
normal lymphocytes [5] = assay: Oxidative stress (GSH/GSSG levels); type: cell-based, human; conditions: data not shown

solubility in water (Water solubility): soluble in water
amount of hydrogen peroxide (normal lymphocytes [5]): No significant elevation
Substance: (1,4)-α-D-glucan [RR1]
levels of C3a des Arg of the alternative pathway [1]: step-wise increase
time to complete removal of I-κBα expression [2]: 60 min
mRNA levels of TLR2, 4 and 6 [3]: remained similar
synthesis of IL-1β (normal lymphocytes [4]): 1080 pg/mL
